{"source": "patent EP2077092A2", "about": "“System and Methods for Screening or Analyzing Targets” (Taipei Veterans General Hospital, priority 2007, dated 2009)", "type_in_all_cases": "cell-based, Sprague-Dawley (SD) rats", "key": {"[1]": {"tested_on": "NSCs", "experiment": "MTT cell viability assay of IM-treated NSCs", "conditions": "3 µM IM, Day 3, Day 5 and Day 7 cultures, p<0.05", "procedure": "All animals used were treated in accordance with the Animal Care and Use Committee guideline at Taipei Veterans General Hospital. The protocol of the present study was also approved by the committee. Adult Sprague-Dawley (SD) rats (8 weeks old, 250 g) were anesthetized with intraperitoneal phenobarbital (Sigma, USA), and the location of their brains was mapped. Then, the brain was surgically separated from the hippocampus region. In brief, tissues from the hippocampus of adult rats were dissociated and incubated in Hank's balanced salt solution (HBSS) containing collagenase (78 units/ml) and hyaluronidase (38 units/ml) for 10 minutes at 37°C. […] Viable cells were counted by trypan blue exclusion and plated as 5000 cells/200 µL per well in 96-well plates (Coming Inc, Acton, MA, USA) with no substrate pretreatment. […]\nIM was purchased from Sigma Chem. Co., St Louis, MO, USA. […] The amount of MTT fromazon product was determined using a microplate reader and the absorbance was measured at 560 nm (SpectraMax 250, Molecular Devices, Sunnyvale, CA, USA). […] The activities of caspases 8 and 3 (Medical and Biological Laboratories Co., Ltd., Nagoya, Japan), and the concentration of IL-6, IL-1 and TNF-α (Pharmingen, San Diego, CA, USA) were determined by ELISA kits and quantified by reading at 490 nm (MRX; Dynatech Laboratories, Chantilly, VA, USA). Each individual sample was analyzed in triplicate."}, "[2]": {"tested_on": "Bcl-2 protein", "experiment": "Bcl-2 protein expression in NSCs by western blot and immunohistochemistry"}, "[3]": {"tested_on": "LPS-treated NSCs", "experiment": "MTT cell survival of LPS-treated NSCs", "conditions": "vs the only LPS-treated NSCs; LPS 100 ng/ml"}, "[4]": {"tested_on": "caspase 8", "experiment": "Caspase 8 activity ELISA in LPS-treated NSCs", "conditions": "LPS (100 ng/ml) exposure, Day 7, vs LPS-treated NSCs without treatment, p<0.05"}, "[5]": {"tested_on": "caspase 3", "experiment": "Caspase 3 activity ELISA in LPS-treated NSCs", "conditions": "LPS (100 ng/ml) exposure, Day 7, vs LPS-treated NSCs without treatment, p<0.05"}, "[6]": {"tested_on": "IL-1β", "experiment": "IL-1β ELISA in LPS-treated NSCs", "conditions": "vs only LPS-treated NSCs, IM 3 µM, p<0.05"}, "[7]": {"tested_on": "IL-6", "experiment": "IL-6 ELISA in LPS-treated NSCs", "conditions": "vs only LPS-treated NSCs, IM 3 µM, p<0.05"}, "[8]": {"tested_on": "NSCs", "experiment": "Immunofluorescent assay of MAP-2-positive cells in differentiating NSCs", "conditions": "Day 7 culture of IM-treated NSCs vs non IM-treated NSCs, p<0.05"}, "[9]": {"tested_on": "NSCs", "experiment": "Microdialysis with HPLC-ECD of 5-HT in the culture medium of IM-treated NSCs", "conditions": "Day 7 and Day 14, IM-treated NSCs vs NSCs without IM treatment, p<0.05"}}}
{"smiles": "CN(C)CCCN1c2ccccc2CCc2ccccc21", "note": "[IM, imipramine]", "values": [{"measurement": "cell survival (MTT assay)", "setting": "[1]", "value": "significantly increased"}, {"measurement": "protein expression level of Bcl-2 in LPS-treated NSCs", "setting": "[2]; 3 µM IM vs 1, 2 µM IM-LPS-treated, only LPS-treated and control groups", "value": "significantly increased"}, {"measurement": "protein levels of Bcl-2 (western blot)", "setting": "[2]; Day 3 IM-treated NSCs vs Day 3 non-IM-treated NSCs, p<0.05", "value": "higher"}, {"measurement": "expression levels of the Bcl-2 protein (western blot)", "setting": "[2]; Day 7 IM-treated NSCs vs Day 3 or Day 5 IM-treated NSCs, p<0.05", "value": "significantly increased"}, {"measurement": "protein expression of Bcl-2 (immunohistochemistry)", "setting": "[2]; Day 7 IM-treated NSCs vs NSCs without the IM treatment", "value": "significantly increased"}, {"measurement": "Bcl-2 expression in NSCs", "setting": "[2]; treatment with IM only or BDNF only", "value": "can activate Bcl-2 expression"}, {"measurement": "cell survival rates in the LPS-treated NSCs", "setting": "[3]", "value": "significantly increases"}, {"measurement": "apoptotic activities of caspase 8", "setting": "[4]", "value": "significantly decreased"}, {"measurement": "apoptotic activities of caspase 3", "setting": "[5]", "value": "significantly decreased"}, {"measurement": "IL-1β production in the LPS-treated NSCs", "setting": "[6]", "value": "effectively reduces"}, {"measurement": "IL-6 production in the LPS-treated NSCs", "setting": "[7]", "value": "effectively reduces"}, {"measurement": "percentages of MAP-2-positive cells", "setting": "[8]", "value": "significantly increased"}, {"measurement": "5-HT levels of the culture mediums", "setting": "[9]", "value": "significantly higher"}]}
